Test results taken from US20070276126A1, “Cell adhesion and extracellular matrix proteins” (Incyte Corporation, priority 2002, published 2007).

How the values were obtained:
[1] = tested on: expression of SEQ ID NO:78 in PHA blasts (T cell blasts derived from PBMCs); assay: Microarray analysis of SEQ ID NO:78 expression in reactivated PHA blasts versus untreated PHA blasts; type: cell-based, human; conditions: PHA blasts stimulated for 2 hours, versus matching untreated PHA blasts, one donor tested
Method: (§1) Total RNA is isolated from tissue samples using the guanidinium thiocyanate method and poly(A)^+ RNA is purified using the oligo-(dT) cellulose method. Each poly(A)^+ RNA sample is reverse transcribed using MMLV reverse-transcriptase, 0.05 pg/μl oligo-(dT) primer (21 mer), 1× first strand buffer, 0.03 units/μl RNase inhibitor, 500 μM dATP, 500 μM dGTP, 500 μM dTTP, 40 μM dCTP, 40 μM dCTP-Cy3 (BDS) or dCTP-Cy5 (Amersham Biosciences). The reverse transcription reaction is performed in a […] containing 200 ng poly(A)^+ RNA with GEMBRIGHT kits (Incyte). Specific control poly(A)^+ RNAs are synthesized by in vitro transcription from non-coding yeast genomic DNA. […]
(§2) Reporter-labeled hybridization complexes are detected with a microscope equipped with an Innova 70 mixed gas 10 W laser (Coherent, Inc., Santa Clara Calif.) capable of generating spectral lines at 488 nm for excitation of Cy3 and at 632 nm for excitation of Cy5. […]
(§3) A grid is superimposed over the fluorescence signal image such that the signal from each spot is centered in each element of the grid. The fluorescence signal within each element is then integrated to obtain a numerical value corresponding to the average intensity of the signal. […]

[2] = tested on: expression of SEQ ID NO:78 in normal and Tangier disease derived fibroblasts; assay: Microarray analysis of SEQ ID NO:78 expression in fibroblasts cultured in the presence versus absence of cholesterol; type: cell-based, human; conditions: fibroblasts cultured in the presence of cholesterol versus same cell type in the absence of cholesterol (one of 'both types of comparisons')
Method: as §1, §2, §3

Compound	downregulation of SEQ ID NO:78 [1]	downregulation of SEQ ID NO:78 [2]
CCCCCCCCCCCCCC(=O)O[C@@H]1[C@@H](C)[C@@]2(O)[C@@H](C=C(CO)C[C@]3(O)C(=O)C(C)=C[C@@H]23)[C@@H]2C(C)(C)[C@]12OC(C)=O [PMA, phorbol myristate acetate]	at least two	
CC(C)CCC[C@@H](C)[C@H]1CC[C@H]2[C@@H]3CC=C4C[C@@H](O)CC[C@]4(C)[C@H]3CC[C@]12C [cholesterol]		at least two
